{
  "source": "patent US20030220524A1",
  "about": "“Sulfur containing compounds” (priority 2000, published 2003)",
  "assay_type_in_all_cases": "cell-based, human",
  "key": {"[1]": {"system": "G2 leukemic cell line", "test": "Fixed propidium iodide staining, flow cytometry", "settings": "48 h"}, "[2]": {"system": "B1 leukemic cell line", "test": "Fixed propidium iodide staining, flow cytometry", "settings": "48 h"}, "[3]": {"system": "W1 leukemic cell line", "test": "Fixed propidium iodide staining, flow cytometry", "settings": "48 h"}, "[4]": {"system": "G2 leukemic cell line", "test": "MTT assay", "settings": "Homo sapiens, 48 h, read-out: MTT50", "description": "(§1) All cell lines were assayed as asynchronously growing cells. Leukemic cell lines, OCI-AML-2, OCI-AML-3 (referred to hereafter as AML-2 and AML-3, respectively), NB-4, KK, B1, G2, and W1 were cultured in alpha-minimal essential medium (α-MEM) (Princess Margaret Hospital Media Services) supplemented with 10% fetal bovine serum (FBS) (Sigma, St. Louis, Mo.). Non-transformed, diploid fibroblast lines WI38 and IMR90, were cultured in α-MEM and MEM F-15, respectively supplemented with 10% FBS. Media for IMR90 cells was also supplemented with 1.5 g/L bicarbonate and 1 mM pyruvate. Breast tumour cell lines, MDA-231, SK-BR-3, MCF-7, ZR-751, and melanoma tumour cell lines, WM9, WM983, WM793, 1232, were grown in α-MEM supplemented with 10% fetal bovine serum. Prostate tumour cell lines, DU145 and PC-3, were grown in RPMI 1640 media supplemented with 10% FBS. All cell lines were cultured in the presence of penicillin/streptomycin. Mononucleated cells were isolated from normal bone marrow using Ficoll hypaque and then T-cell depleted. T-cell depletion was performed by incubating the mononucleated bone marrow cells in α-MEM at a concentration of 2×10^7 cells/mL with 10% absor FBS and 10% (v/v) sheep red blood cells for 4 to 16 h. Absor FBS was prepared beforehand by heating FBS at 56° C. for 1 h, incubating with sheep red blood cells at 0.5% (v/v) for 1 h and then filtering the FBS with a […]. The T-cell depleted, mononucleated cells were recovered using Ficoll hypaque and were maintained in α-MEM supplemented with 20% FBS and 10% 5637 ? nditioned media. 5637 conditioned media ? s previously harvested from confluent 5637 cells after a 3 day incubation. Normal bone marrow from bone marrow transplant donor was collected following informed consent according to institutional guidelines.\n(§2) Approximately 20 mg of each compound was dissolved in 5 mL of ACS grade acetone (Sigma) using a 5 mL volumetric flask. Stock solutions of the compounds were stored in the dark at −20° C. Compounds were diluted prior to each experiment.\n(§3) Adherent cells were seeded at 67×10^3 cells/mL in a 96 well plate (Falcon, Mississauga, Ontario) the day prior to exposure to compound. Suspension cells were seeded at 27×10^4 cells/mL in a 96 well plate the day of exposure to compound. Mononucleated, T-cell depleted normal bone marrow cells were seeded at 67×10^4 cells/mL in a 96 well plate the day of exposure to compound. Compounds and solvent control were added to cells and assayed in triplicate or sextuplet. Following 48 h of incubation at 37° C. with 5% CO2, 40 μL of a 5 mg/mL solution of 3-[4,5-dimethylthiazol-2-yl]-2,5-diphenyltetrazolium bromide (MTT) substrate (Sigma) in Dulbecco's phosphate-buffered saline (D-PBS) was added. After 4 h of incubation at 37° C. with 5% CO2, the resulting violet formazan precipitate was solubilized by the addition of 80 μL of a 0.01 M HCI, 10% sodium dodecyl sulfate (SDS; Sigma) solution overnight at 37° C. with 5% CO2. The plates were then analyzed using the BioRad Benchmark Microplate Reader (BioRad Laboratories, Hercules, Calif.) at 570 nm to determine the optical density of the samples. MTT data was analyzed using Prism 3.0 (GraphPad Software, Inc., San Diego, Calif.) by the Chou-Talalay method. MTT graphs shown are a representative experiment.\n(§4) Adherent cells were seeded at 67×10^3 cells/mL in a 96 well plate (Falcon, Mississauga, Ontario) the day prior to exposure to compound. Suspension cells were seeded at 27×10^4 cells/mL in a 96 well plate the day of exposure to compound. Mononucleated, T-cell depleted normal bone marrow cells were seeded at 67×10^4 cells/mL in a 96 well plate the day of exposure to compound. Compounds and solvent control were added to cells and assayed in triplicate or sextuplet. […]"}, "[5]": {"system": "NB-4 leukemic cell line", "test": "MTT assay", "settings": "48 h, read-out: MTT50", "description": "as §1, §2, §3, §4"}, "[6]": {"system": "W1 leukemic cell line", "test": "MTT assay", "settings": "48 h, read-out: MTT50", "description": "as §1, §2, §3, §4"}, "[7]": {"system": "AML-2 leukemic cell line", "test": "MTT assay", "settings": "48 h, read-out: MTT50", "description": "as §1, §2, §3, §4"}},
  "note": "Where two headings read alike, the source gives them in different places.",
  "data": [
    {"smiles": "CSSc1ccc([N+](=O)[O-])cc1", "note": "[M, methyl p-nitrophenyl disulphide]", "values": [
      {"measurement": "% pre-G1 (Fixed PI)", "setting": "[1]; dose 20 uM", "result": 10, "unit": "%"},
      {"measurement": "% pre-G1 (Fixed PI)", "setting": "[1]; dose 40 uM", "result": 43, "unit": "%"},
      {"measurement": "% pre-G1 (Fixed PI)", "setting": "[2]; dose 20 uM", "result": 70, "unit": "%"},
      {"measurement": "% pre-G1 (Fixed PI)", "setting": "[2]; dose 40 uM", "result": 76, "unit": "%"},
      {"measurement": "% pre-G1 (Fixed PI)", "setting": "[3]; dose 20 uM", "result": 9, "unit": "%"},
      {"measurement": "% pre-G1 (Fixed PI)", "setting": "[3]; dose 40 uM", "result": 28, "unit": "%"},
      {"measurement": "IC50", "setting": "[4]", "result": 11.3, "unit": "µM"},
      {"measurement": "IC50", "setting": "[5]; Homo sapiens, NB-4", "result": 21.2, "unit": "µM"},
      {"measurement": "IC50", "setting": "[6]; Homo sapiens", "result": 4.8, "unit": "µM"}
    ]},
    {"smiles": "CSSCC(=O)c1ccccc1", "note": "[Compound P, phenacyl methyl disulphide]", "values": [
      {"measurement": "% pre-G1 (Fixed PI)", "setting": "[1]; dose 50 uM", "result": 6, "unit": "%"},
      {"measurement": "% pre-G1 (Fixed PI)", "setting": "[1]; dose 150 uM", "result": 63, "unit": "%"},
      {"measurement": "% pre-G1 (Fixed PI)", "setting": "[2]; dose 50 uM", "result": 52, "unit": "%"},
      {"measurement": "% pre-G1 (Fixed PI)", "setting": "[2]; dose 150 uM", "result": 80, "unit": "%"},
      {"measurement": "% pre-G1 (Fixed PI)", "setting": "[3]; dose 50 uM", "result": 14, "unit": "%"},
      {"measurement": "% pre-G1 (Fixed PI)", "setting": "[3]; dose 150 uM", "result": 55, "unit": "%"},
      {"measurement": "IC50", "setting": "[5]; Homo sapiens, NB-4", "result": 60.8, "unit": "µM"}
    ]},
    {"smiles": "CSSCS(=O)(=O)c1ccc(C)cc1", "note": "[Compound C, α-p-toluenesulfonyl dimethyl disulphide]", "values": [
      {"measurement": "IC50", "setting": "[5]; NB-4", "result": 11.7, "unit": "µM"},
      {"measurement": "IC50", "setting": "[7]", "result": 13.2, "unit": "µM"},
      {"measurement": "IC50", "setting": "[6]", "result": 8.7, "unit": "µM"}
    ]},
    {"smiles": "CCC(=O)OCSSc1ccccc1", "note": "[Compound Q, 1-phenyl-1,2-dithiapropyl propionate]", "values": [
      {"measurement": "% G2 increase (Fixed PI)", "setting": "[1]; dose 20 uM", "result": "−1", "unit": "%"},
      {"measurement": "% pre-G1 (Fixed PI)", "setting": "[1]; dose 20 uM", "result": 31, "unit": "%"},
      {"measurement": "% G2 increase (Fixed PI)", "setting": "[1]; dose 40 uM", "result": "−3", "unit": "%"},
      {"measurement": "% pre-G1 (Fixed PI)", "setting": "[1]; dose 40 uM", "result": 55, "unit": "%"},
      {"measurement": "% G2 increase (Fixed PI)", "setting": "[2]; dose 20 uM", "result": 0, "unit": "%"},
      {"measurement": "% pre-G1 (Fixed PI)", "setting": "[2]; dose 20 uM", "result": 5, "unit": "%"},
      {"measurement": "% G2 increase (Fixed PI)", "setting": "[2]; dose 40 uM", "result": "−3", "unit": "%"},
      {"measurement": "% pre-G1 (Fixed PI)", "setting": "[2]; dose 40 uM", "result": 20, "unit": "%"},
      {"measurement": "% G2 increase (Fixed PI)", "setting": "[3]; dose 20 uM", "result": "+4%"},
      {"measurement": "% pre-G1 (Fixed PI)", "setting": "[3]; dose 20 uM", "result": 20, "unit": "%"},
      {"measurement": "% G2 increase (Fixed PI)", "setting": "[3]; dose 40 uM", "result": "+12%"},
      {"measurement": "% pre-G1 (Fixed PI)", "setting": "[3]; dose 40 uM", "result": 49, "unit": "%"},
      {"measurement": "IC50", "setting": "[4]", "result": 14.7, "unit": "µM"},
      {"measurement": "IC50", "setting": "[6]; Homo sapiens", "result": 13, "unit": "µM"}
    ]},
    {"smiles": "CSSCCS(C)(=O)=O", "note": "[F, 2,3,6-trithiaheptane 6,6,-dioxide]", "values": [
      {"measurement": "IC50", "setting": "[7]", "result": 37.6, "unit": "µM"}
    ]},
    {"smiles": "CSCSSC", "note": "[Compound N, 2,3,5-trithiahexane]", "values": [
      {"measurement": "% G2 increase (Fixed PI)", "setting": "[1]; dose 50 uM", "result": "+8%"},
      {"measurement": "% pre-G1 (Fixed PI)", "setting": "[1]; dose 50 uM", "result": 16, "unit": "%"},
      {"measurement": "% G2 increase (Fixed PI)", "setting": "[1]; dose 150 uM", "result": "+8%"},
      {"measurement": "% pre-G1 (Fixed PI)", "setting": "[1]; dose 150 uM", "result": 29, "unit": "%"},
      {"measurement": "% G2 increase (Fixed PI)", "setting": "[2]; dose 50 uM", "result": "+2%"},
      {"measurement": "% G2 increase (Fixed PI)", "setting": "[2]; dose 150 uM", "result": "−1", "unit": "%"},
      {"measurement": "% pre-G1 (Fixed PI)", "setting": "[2]; dose 150 uM", "result": 35, "unit": "%"},
      {"measurement": "% G2 increase (Fixed PI)", "setting": "[3]; dose 50 uM", "result": "+10%"},
      {"measurement": "% pre-G1 (Fixed PI)", "setting": "[3]; dose 50 uM", "result": 22, "unit": "%"},
      {"measurement": "% pre-G1 (Fixed PI)", "setting": "[3]; dose 150 uM", "result": 33, "unit": "%"},
      {"measurement": "IC50", "setting": "[5]; Homo sapiens", "result": 60.8, "unit": "µM"}
    ]},
    {"smiles": "CS(=O)(=O)CSSc1ccccc1", "note": "[E, 5-phenyl-2,4,5-trithiapentane 2,2-dioxide]", "values": [
      {"measurement": "IC50", "setting": "[4]", "result": 3.6, "unit": "µM"},
      {"measurement": "IC50", "setting": "[5]; Homo sapiens, NB-4", "result": 25.4, "unit": "µM"},
      {"measurement": "IC50", "setting": "[7]; Homo sapiens", "result": 15.6, "unit": "µM"}
    ]}
  ]
}
